According to patent publication US20190322638A1, “DIPYRIDYL ALKALOID, PREPARATION METHOD THEREFOR AND USE THEREOF” (OCEAN UNIVERSITY OF CHINA, priority 2016, published 2019):
Where two headings read alike, the source gives them in different places.

Columns and labels:
[1] = Toxicity to normal cells, MTT method; format: cell-based; conditions: human, L-02 cell line
Procedure: (§1) Cell lines and subculture of cells: The following five tumor cell lines were used for activity test human colon cancer cell lines (HCT-116 cells), human hepatoma cell lines (HepG2 cells), human breast cancer cell lines (MCF-7 cells), cervical cancer cell lines (Hela cells), human peripheral blood leukemia T cell lines (Jurkat cells), and human normal liver cell lines (L-02 cells), of which MCF-7, HepG2, Hela, and L-02 cell lines were tested using the MTT model; HCT-116 cell lines were tested using the SRB model. All of the cells were subcultured in a 10% FBS-containing RPMI-1640 medium in an incubator charged with 5% carbon dioxide at 37° C.
(§2) MTT method: Dehydrogenase in mitochondria in live cells was capable of metabolizing yellow bromized 3-(4,5-dimethylthiazole)-2,5-diphenyltetrazolium into ianthinus water-insoluble formazan, and an amount of formazan could be determined by measuring the absorbance thereof with a microplate reader. Since the amount of formazan was directly proportional to the number of live cells, the number of live cells could be determined from the absorbance to learn about the drug's capability of inhibiting or killing tumor cells. […] The cell suspension was inoculated to a 96-well plate at 100 μL per well, and cultured at 37° C. for 24 hours. Thereafter, 100 μL of the sample solutions at different concentrations were added to respective wells and continued to be cultured for 72 hours. Then, 20 μL of MTT-containing IPMI-1640 solution ([…]) was added. After further cultivation for 4 hours, the culture solutions were slowly decanted and 150 μL of DMSO was added to dissolve the formazan, and the absorbance was measured at a wavelength of 540 nm. […] The half inhibitory concentration against cancer cells (IC50) and the half inhibitory concentration against normal cells (CC50) were determined.

[2] = tested on: human colon cancer cell lines (HCT-116 cells); test: In vitro antitumor activity, SRB method; format: cell-based; conditions: for SI = CC50 (normal cell line L-02)/IC50 (tumor cell line): HCT-116 cell line vs L-02; for IC50: Homo sapiens, read-out: Cytotoxic Activity IC50
Procedure: as §1
SRB method: According to the cell growth rate, tumor cells at the logarithmic phase (medium: RPMI-1640 medium containing 10% newborn fetal bovine serum (FBS); cell density: 3×10^4 cells/mL) were inoculated into a 96-well culture plate at 180 μL/well, and subjected to adherent growth for 24 hours at 37° C. under 5% CO2. Subsequently, a test sample was added at 20 μL/well, and four duplicated wells were provided at each concentration. […] The culture solution was decanted, and the cells were fixed with 10% cold trichloroacetic acid (TCA), allowed to stand at 4° C. for 1 hour, and then washed 5 times with distilled water and dried in the air. Thereafter, 100 μL/well of a 4 mg/ml solution of sulforhodamine B (SRB, Sigma) formulated by 1% glacial acetic acid was added, and the mixture was stained at a room temperature for 15 minutes, and the supernatant was removed, washed 5 times with 1% acetic acid, and dried in the air. Finally, 150 μL/well of Tris solution was added, and the absorbance (OD value) was measured with a microplate reader at a wavelength of 540 nm. […] The half inhibitory concentration against cancer cells (IC50) was determined.
(§3) Selection Index (SI) is the ratio of the CC50 value of a test sample inhibiting the growth of normal cell lines to the IC50 value of the test sample inhibiting tumor cell proliferation, which reflects the selectivity and safety of the sample.
(§4) SI=CC50(normal cell line L-02)/IC50(tumor cell line) Equation: […]

[3] = tested on: cervical cancer cell lines (Hela cells); test: In vitro antitumor activity, MTT method; format: cell-based; conditions: for SI = CC50 (normal cell line L-02)/IC50 (tumor cell line): Hela cell line vs L-02; for IC50: Homo sapiens, read-out: Cytotoxic Activity IC50
Procedure: as §1, §2, §3, §4

[4] = tested on: human hepatoma cell lines (HepG2 cells); test: In vitro antitumor activity, MTT method; format: cell-based; conditions: for SI = CC50 (normal cell line L-02)/IC50 (tumor cell line): HepG2 cell line vs L-02; for IC50: Homo sapiens, read-out: Cytotoxic Activity IC50
Procedure: as §1, §2, §3, §4

[5] = tested on: human peripheral blood leukemia T cell lines (Jurkat cells); test: In vitro antitumor activity, Jurkat cells; format: cell-based; conditions: for IC50: Homo sapiens, read-out: Cytotoxic Activity IC50; for SI = CC50 (normal cell line L-02)/IC50 (tumor cell line): Jurkat cell line vs L-02
Procedure: as §1, §3, §4

[6] = tested on: human breast cancer cell lines (MCF-7 cells); test: In vitro antitumor activity, MTT method; format: cell-based; conditions: for IC50: Homo sapiens, read-out: Cytotoxic Activity IC50; for SI = CC50 (normal cell line L-02)/IC50 (tumor cell line): MCF-7 cell line vs L-02
Procedure: as §1, §2, §3, §4

[7] = tested on: colon cancer HCT-116 transplantation tumors; test: In vivo antitumor test on transplantation tumors in nude mice; set-up: species or system BALB/C (nu/nu) nude mice; conditions: HCT-116, 14 days, Docetaxel 5 mg/kg intravenously every other day, Compound 2 7.5 mg/kg intraperitoneally daily; for Tumor Weight: X ± S; for Inhibition Rate % (tumor inhibition rate): vs negative control
Procedure: An in vivo antitumor test for Compound 2 was conducted on in vivo transplantation tumors from nude mice experiencing colon cancer HCT-116.
Laboratory mice: BALB/C, (nu/nu) nude mice, from 18 to 20 g in weight, male; purchased from BEIJING HFK BIOSCIENCE Co., LTD.; License No.: SCXK (Jing)-2014-0004.
Positive drug: Docetaxel, dissolved with Tween DMSO as a solvent and formulated into 9 mg/mL solution for service; diluted with normal saline.
Test drug: Compound 2, 10 mg/mL of stock solution being dissolved with DMSO, diluted with normal saline till the concentration was 0.75 mg/mL, and the administration volume was 0.1 mL/10 g body weight.
(§5) A cell suspension of human colon cancer cell line HCT-116 at a concentration of 30 million/mL was formulated in a 5 A medium containing 10% fetal bovine serum. After conventional disinfection, the cell suspension was inoculated subcutaneously into the armpits of the right forelimbs of the mice at a dose of 0.2 ml for each. The mice were not administered until the tumors had grown to an average volume of about 100 mm^3. Positive drugs, compounds, and negative control groups were arranged. The dosages were 5 mg/kg of Docetaxel (positive), and 7.5 mg/kg of Compound 2. Routes of administration were as follows: Docetaxel was intravenously administered every other day; Compound 2 was intraperitoneally injected daily; the negative control group was intraperitoneally injected with isometric normal saline. The mice were administered for 14 days, during which the mice were weighed daily and the variation trends of body weights of the mice were calculated. The mice were killed 24 hours after the last administration. Their tumor tissues were dissected, the tumor mass was weighed, and the tumor inhibition rate was calculated. The equation for calculating the tumor inhibition rate was as follows: […]
(§6) Statistical analysis: The SPSS 13.0 statistical software was used for data processing. The resulting data were marked with X±S. The data from each group were analyzed by t test, and the P value was used to indicate difference between groups.

[8] = Spleen index, body weight and behavioral observation of mice in the in vivo antitumor test; set-up: species or system BALB/C (nu/nu) nude mice; conditions: nude mice; for effect on body weight of the mice / effect on spleen index of mice (in words): 14 days administration; for Spleen Index (100 × spleen mass/body mass): 14 days, Docetaxel (10 mg/kg as printed in Table 11), Compound 2 7.5 mg/kg
Procedure: as §5, with “The dosages were 5 mg/kg of Docetaxel (positive), and 7.5 mg/kg of Compound 2.” left out
In the meantime, the spleens were removed from the mice, and the capsules were peeled off. The mass of the spleens of the mice was recorded respectively, and the spleen indices were calculated by the following equation:
spleen index=100×spleen mass/body mass.
as §6

[9] = HCT-116 cell line, SRB, 72 hours

SMILES	CC50 at 72 h ([1]; L-02 normal liver cells)	SI = CC50 (normal cell line L-02)/IC50 (tumor cell line) [2]	IC50 [2, 9]	SI = CC50 (normal cell line L-02)/IC50 (tumor cell line) [3]	IC50 ([3]; Hela cell line, MTT, 72 hours)	SI = CC50 (normal cell line L-02)/IC50 (tumor cell line) [4]	IC50 ([5]; Jurkat cell line)	SI = CC50 (normal cell line L-02)/IC50 (tumor cell line) [5]	other results
C[C@@H]1O[C@@H](Oc2cc(/C=N/O)nc(-c3ccccn3)c2)[C@H](O)[C@H](O)[C@H]1O [Compound 1]	28.3 µM	40.4	700 nM	3.1	9 µM	10.5	10.8 µM	2.6	IC50 ([4]; HepG2 cell line, MTT, 72 hours): 2700 nM
COc1cc(/C=N/O)nc(-c2ccccn2)c1 [Compound 2]	–	13.0	–	39	–	19.5	–	19.5	CC50 at 72 h [1]: 3.9 µM; IC50 ([2]; HCT-116, 72 h): 300 nM; IC50 ([3]; HeLa, 72 h): 0.1 µM; IC50 ([6]; MCF7, 72 h): 1 µM; SI = CC50 (normal cell line L-02)/IC50 (tumor cell line) [6]: 3.9; IC50 ([4]; HepG2, 72 h): 200 nM; IC50 ([5]; Jurkat): 0.2 µM; Tumor Weight [7]: 0.59 ± 0.33 g; Inhibition Rate % (tumor inhibition rate) [7]: 42.46%; effect on body weight of the mice [8]: not adversely affected; effect on spleen index of mice (in words) [8]: no effect; Spleen Index (100 × spleen mass/body mass) [8]: 0.45 ± 0.09; behavioral observation: adverse effects ([8]; within 14 days after administration, 7.5 mg/kg intraperitoneally daily): no obvious adverse effects such as allergy were observed
COc1cc(/C=N/O)nc(-c2ccccn2)c1O [Compound 4]	–	1.2	–	–	–	–	–	–	CC50 at 72 h [1]: 1.7 µM; IC50 ([2]; HCT-116, 72 h): 1400 nM
COc1cc(/C=N/O)nc(-c2ccc(F)cn2)c1 [Compound 5]	7.5 µM	–	–	1.7	4.4 µM	–	–	–	–
COc1cc(C=O)nc(-c2ccccn2)c1 [Compound 6]	31.4 µM	5.2	6000 nM	1.6	19.3 µM	–	14.5 µM	2.2	IC50 ([6]; MCF7, MCF-7 cell line, MTT, 72 hours): 12 µM; SI = CC50 (normal cell line L-02)/IC50 (tumor cell line) [6]: 2.6
C[C@H]1O[C@H](Oc2cc(/C=N/O)nc(-c3ccccn3)c2)[C@H](O)[C@@H](O)[C@@H]1O [Compound 7]	59.5 µM	27.0	2200 nM	23.8	2.5 µM	6.0	1.3 µM	45.8	IC50 ([4]; HepG2 cell line, MTT, 72 hours): 10000 nM
CC(=O)O[C@@]12CO[C@@H]1C[C@H](O)[C@@]1(C)C(=O)[C@H](O)C3=C(C)[C@@H](OC(=O)[C@H](O)[C@@H](NC(=O)OC(C)(C)C)c4ccccc4)C[C@@](O)([C@@H](OC(=O)c4ccccc4)[C@H]21)C3(C)C [Docetaxel, reference compound]	–	–	–	–	–	–	–	–	Tumor Weight [7]: 0.13 ± 0.07 g; Inhibition Rate % (tumor inhibition rate) [7]: 87.39%; effect on body weight of the mice [8]: decreased; effect on spleen index of mice (in words) [8]: decreased; Spleen Index (100 × spleen mass/body mass) [8]: 0.25 ± 0.11
